Source: patent US11026943B2, “Aminoquinoline derivatives and uses thereof” (UNIVERSITY OF DELHI, priority 2012, dated 2021)
Where “and” joins values, the source holds several entries; their conditions need not be identical. Equal entries are not always repeated.

Experiments:
full-length Nurr1 = target: T1, full-length Nurr1 (Mus musculus, UniProt Q06219); experiment: Full-length Nurr1 reporter assay (p4xNL3-Luc) in SK-N-BE(2)C cells; format: cell-based; details: dose-dependent, maximal
T1 construct: Full-length mouse Nurr1cDNA was amplified by RT-PCR from pSV40Nurr1; expressed in transfected cells; host or cells: SK-N-BE(2)C human neuroblastoma cells
Text: (§1) The pTH2600LUC reporter construct contains the 2.6 kb upstream sequences of the rat tyrosine hydroxylase gene in front of a firefly luciferase gene in pGL3-basic vector. A Nurr1-expression plasmid, pSV40Nurr1, was kindly provided by Dr Orla M. Conneely at Baylor College of Medicine (Houston, Tex., USA). […] The VP16/SRC1 and VP16/SRC3 hybrid were constructed by inserting the transactivation domain of the VP16 protein upstream of SRC1 and SRC3, respectively. […] The recombinant proteins were purified by Ni-NTA column chromatography (Qiagen) according to the manufacturer's instruction. The integrity of all sequences was verified by DNA sequence analyses.
Human neuroblastoma SK-N-BE(2)C cells were maintained in Dulbecco's modified Eagle's medium (DMEM) supplemented with 10% fetal bovine serum. All culture media contained 100 units/ml penicillin and 100 μg/ml streptomycin. For transfection, cells were plated at 1.5×10^5 cells/well in the DMEM media without antibiotic into 24-well plates 1 day prior to transfection. Transfections were carried out by the Lipofectamine plus (Invitrogen) according to the manufacture's protocol. Total DNA amount was 0.5 μg per well with 0.1 μg of pRSV-β-gal as an internal control. […] Then equal volume of firefly luciferase substrate was added and the luciferase activity was measured using a Luminometer plate reader and normalized for beta-galactosidase activity.

Nurr1 = target: T2, Nurr1 (Mus musculus, UniProt Q06219); experiment: High-throughput cell-based screen of Nurr1-dependent TH promoter activation; details: library of 960 FDA-approved drugs
T2 construct: Full-length mouse Nurr1cDNA was amplified by RT-PCR from pSV40Nurr1; expressed in transfected cells; host or cells: SK-N-BE(2)C human neuroblastoma cells

Nurr1 LBD [1] = target: T3, Nurr1 LBD (Mus musculus, UniProt Q06219); experiment: Filter binding assay with [3H]-CQ (saturation and competition)
Text: The basal level of transcriptional activity was normalized to 1. The bars represent means±SEM from three independent experiments. (FIG. 13C) Effect of Nurr1 specific siRNA on Nurr1 LBD's transactivation activity. […] (FIG. 13D) Human neuroblastoma SK-N-BE(2)C cells were transfected with the N-terminal flag-tagged SRC1 or SRC3 and the C-terminal myc-tagged full-length Nurr1. […] Cell lysates were immunoprecipitated (IP) using anti-flag antibodies and analyzed by immunoblotting (IB) using anti-myc antibodies. […] The fold induction was derived by comparing each luciferase activity to basal level obtained by non-SRC transfection. […] The concentrations (04) are shown next to the arrows. […] Specific binding was calculated as the difference of total and non-specific binding. The insert indicates Scatchard analysis of the specific binding. […] The data represent the average of triplicate from three independent experiments. All graphs, Kd, Ki, and Bmax values were generated using the non-linear regression program Prism version 5.02.
GF/C filters were wet with in binding buffer and placed on a 48-place filter manifold. […] Filters were washed with 4×100 ml binding buffer, dried, and mixed with 5 ml Scintiverse BD (Fisher) and radioactivity was determined in a Beckman LS6000SC liquid scintillation counter. […] The mixture was applied to GF/C filter and filter was washed and counted as described above.

aphakia (ak/ak) mice = experiment: Behavioral studies in ak/ak mice (Pole, Challenging Beam, Cylinder, Rotarod) and SN histology; format: in vivo, mouse; details: L-DOPA 8 mg/kg i.p. once per day
Experimental: Either 20 mg/kg of AQ (AQ group) or the saline (Saline group) was intraperitoneally injected (I.P.) twice per day for two weeks. 8 mg/kg of L-DOPA (L-DOPA group) in 0.5% DMSO was injected (I.P.) once per day for two weeks. The L-DOPA group was given 12.5 mg/kg benserazide 20 min prior to administration of L-DOPA.
Each ak mouse was randomly assigned into one of three experiment groups, (1) saline group (negative control; n=8), (2) L-DOPA group (positive control; n=8), (3) AQ group (n=10). Each WT or rdl mouse was randomly divided into two groups, (1) saline group (n=8) and (2) AQ group (n=10). Pole Test, Challenging Beam Traversal Test, and Cylinder Test were performed at two time points, immediately and one month after two weeks of either AQ or saline injection. Each mouse ran each task twice. Rota rod test was performed immediately after two weeks of either drug or saline injection. Acclimation and data recording process were identical to the rat study described above. All tasks were performed as described previously^11 and the short description of each task is as follows.
A vertical wooden pole 50 cm in length and 1 cm in diameter was used for Pole Test. Each mouse was gently placed head upwards on top of the pole which is placed on each animal's home cage. Each mouse ran tree trials per session during 2 training sessions. On the testing day, mice ran three trials. Two parameters (the meantime to orient downward and the total travel mean time) were used for the statistical analysis.
A 1 m length of plastic beam was used for Challenging Beam Traversal Test. The starting width of the beam was 3.5 cm and it gradually narrowed in 1 c increments to 0.5 cm at the other end site of the beam. Animals were trained to walk from the wide end to the other end for 2 sessions, three trials per session before testing. A mesh grid was removed during the training period. On the testing day, a mesh grid (1 cm square) covering the beam surface was equipped leaving a […] room between the grid and the beam surface. On the testing day, mice ran three trials. Two parameters (the mean number of steps taken by each animal and the mean time to traverse across three trials) were collected and used for statistical analysis.
A small transparent cylinder (height, 15.5 cm; diameter, 12.7 cm) was used to evaluate somatosensory motor function. Mice were placed in the cylinder and their rears were counted for 5 minutes. The forelimb touching the Plexiglas wall (a vertical movement) is defined as a full rear. The mean number of forelimb use was calculated for the statistical analysis. […]
The Rota rod equipment (Med-Associates, Inc, Albans, Vt., USA) was used to measure motor coordination. […] The mean latency to fall off from the Rota rod was measured for the statistical analysis. […]

Nurr1 LBD [2] = target: T3, Nurr1 LBD; experiment: Nurr1 LBD GAL4 reporter assay (pSVGAL(DBD)-N(LBD), p8xGAL-Luc) in SK-N-BE(2)C cells; format: cell-based
Text: as §1
Human neuroblastoma SK-N-BE(2)C cells were maintained in Dulbecco's modified Eagle's medium (DMEM) supplemented with 10% fetal bovine serum. All culture media contained 100 units/ml penicillin and 100 μg/ml streptomycin. For transfection, cells were plated at 1.5×10^5 cells/well in the DMEM media without antibiotic into 24-well plates 1 day prior to transfection. Transfections were carried out by the Lipofectamine plus (Invitrogen) according to the manufacture's protocol. Total DNA amount was 0.5 μg per well with 0.1 μg of pRSV-β-gal as an internal control. 6 hours after transfection, compounds in the DMEM media with 1% charcoal-stripped fetal calf serum was added and incubated overnight. Cells from each well were lysed with 100 μl of lysis buffer, which contains 25 mM Tris-phosphate (pH 7.8), 2 mM DTT, 2 mM CDTA (1,2-diaminocyclohexane-N,N,N′,N′-tetraacetic acid), 10% glycerol, and 1% Triton X-100. Then equal volume of firefly luciferase substrate was added and the luciferase activity was measured using a Luminometer plate reader and normalized for beta-galactosidase activity.

[3] = test system: LBDs of Nur77, GR, LXR, RXR, PPARα, PPARγ; experiment: Target selectivity: GAL4-LBD reporter assays of other nuclear receptors; format: cell-based; details: FIG. 19; 30 μM AQ
[4] = test system: Nurr1 recruitment to TH promoter NL1 and NL3; experiment: Chromatin immunoprecipitation in PC12 cells; format: cell-based, rat; details: 20 μM AQ or 75 μM CQ for 15 hrs
Experimental: Error bars represent standard deviations.
Cells were washed with PBS, fixed with 1% formaldehyde, lysed, and sonicated according to the manufacturer's instruction (Active Motif). 25 μg of soluble chromatin DNA were co-immunoprecipitated 1 μg of Nurr1 specific antibody (E-20, Santa Cruz) or control antibody (rabbit IgG, santa Cruz). […] Values are shown as fold induction compared to mock treated control cells.

[5] = test system: primary cultures of rat mesencephalic DA neurons; experiment: 6-OHDA-induced death in primary mesencephalic DA neurons (TH+ count, [3H]DA uptake); format: cell-based; details: number of TH+ neurons and DA uptake; 20 μM 6-OHDA for 24 hr
PC12 cells = experiment: 6-OHDA toxicity in PC12 cells (MTT reduction assay); format: cell-based, rat
Experimental: Cell viabilities were determined by the conventional MTT reduction assay. After incubation for indicated times, cells were treated with the MTT solution (final concentration, 1 mg/ml, Sigma) for 1 h. Formazan grains formed in intact cells were solubilized with MTT Solubilization. Solution containing 10% Triton X-100 plus 0.1 N HCl in anhydrous isopropanol for 24 h and then absorbance at 570 nm was measured with a microplate reader (Molecular Devices, Menlo Park, Calif.).

MPTP-treated monkeys = details: previous study; cited from earlier work
[6] = test system: CQ-sensitive (D6 clone) strain of P. falciparum; experiment: In vitro antimalarial activity, CQ-sensitive strain; format: cell-based, Plasmodium falciparum; details: for IC50: Plasmodium falciparum, CQ-sensitive D6 clone, read-out: P. falciparum (D6 Clone) IC50; for selectivity index of antimalarial activity: ratio of IC50 for cytotoxicity to Vero cells and IC50 for antimalarial activity; for P. falciparum (D6 Clone) S.I.: selectivity index = IC50 cytotoxicity to Vero cells / IC50 antimalarial; for activity fold higher than artemisinin: CQ-sensitive strain
Text: (§2) Med. Chem. 2005, 13, 4458; Khan, I. A. Lipids 2004, 37, 169].

[7] = test system: CQ-resistant (W2 clone) strain of P. falciparum; experiment: In vitro antimalarial activity, CQ-resistant strain; format: cell-based, Plasmodium falciparum; details: for IC50: Plasmodium falciparum, CQ-resistant W2 clone, read-out: P. falciparum (W2 Clone) IC50; for P. falciparum (W2 Clone) S.I.: selectivity index = IC50 cytotoxicity to Vero cells / IC50 antimalarial
Text: as §2

VERO cells = experiment: In vitro cytotoxicity to mammalian cells, VERO; format: cell-based; details: for IC50: Chlorocebus sabaeus, Vero, in vitro cytotoxicity to mammalian cells; for toxicity to cell lines: all the three cell lines (VERO, LLC-PK-1, and HepG2)
Text: as §2

LLC-PK-1 cells = experiment: In vitro cytotoxicity to mammalian cells, LLC-PK-1; format: cell-based; details: Sus scrofa, LLC-PK1
Text: as §2

HepG2 cells = experiment: In vitro cytotoxicity to mammalian cells, HepG2; format: cell-based; details: Homo sapiens
Text: as §2

T3 sequence (Q06219 328-598): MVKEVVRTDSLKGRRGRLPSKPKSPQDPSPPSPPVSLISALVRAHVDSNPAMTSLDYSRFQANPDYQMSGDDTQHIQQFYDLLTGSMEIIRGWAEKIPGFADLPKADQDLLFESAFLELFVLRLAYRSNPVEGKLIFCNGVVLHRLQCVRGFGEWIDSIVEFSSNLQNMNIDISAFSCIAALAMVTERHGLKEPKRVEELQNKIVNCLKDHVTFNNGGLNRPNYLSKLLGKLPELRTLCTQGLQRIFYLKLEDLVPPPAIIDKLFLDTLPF
T1 sequence (Q06219 whole entry): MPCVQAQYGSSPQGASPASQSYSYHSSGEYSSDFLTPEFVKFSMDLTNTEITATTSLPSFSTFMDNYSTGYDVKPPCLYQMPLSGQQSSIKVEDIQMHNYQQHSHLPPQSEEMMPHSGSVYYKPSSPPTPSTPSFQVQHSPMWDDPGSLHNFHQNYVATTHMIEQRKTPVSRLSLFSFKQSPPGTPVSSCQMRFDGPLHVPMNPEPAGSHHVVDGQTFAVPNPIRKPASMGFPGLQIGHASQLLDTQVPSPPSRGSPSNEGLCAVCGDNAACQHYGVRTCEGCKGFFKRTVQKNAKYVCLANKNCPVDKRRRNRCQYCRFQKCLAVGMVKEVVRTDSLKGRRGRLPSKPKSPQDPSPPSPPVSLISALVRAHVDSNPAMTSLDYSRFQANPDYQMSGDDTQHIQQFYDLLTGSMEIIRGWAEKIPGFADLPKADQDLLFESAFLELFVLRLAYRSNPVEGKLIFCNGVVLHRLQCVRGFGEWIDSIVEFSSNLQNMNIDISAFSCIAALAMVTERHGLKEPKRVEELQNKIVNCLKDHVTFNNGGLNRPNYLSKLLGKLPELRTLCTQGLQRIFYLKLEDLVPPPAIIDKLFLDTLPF
T2 sequence (Q06219 whole entry): as above

Row | IC50 [6] [µM] | IC50 [7] [µM] | melting point [°C] | Compound | P. falciparum (D6 Clone) S.I. [6] | P. falciparum (W2 Clone) S.I. [7] | IC50 (VERO cells) [µM] | IC50 (LLC-PK-1 cells) [µM] | IC50 (HepG2 cells) [µM] | also measured
1 | – | – | – | O=C(OCC(O)CO)c1ccccc1Nc1ccnc2cc(Cl)ccc12 (stereo not drawn) [glafenine] | – | – | – | – | – | luciferase reporter activity, fold activation (full-length Nurr1): approximately 1.6 fold; screen outcome (Nurr1): hit compounds
2 | – | – | – | CCN(CC)CCCC(C)Nc1ccnc2cc(Cl)ccc12 (stereo not drawn) [[^3H]-CQ] | – | – | – | – | – | Kd (Nurr1 LBD [1]; radioligand saturation binding, read-out: dissociation constant, saturable binding to Nurr1-LBD): 0.27 µM
3 | – | – | – | N[C@@H](Cc1ccc(O)c(O)c1)C(=O)O [L-DOPA] | – | – | – | – | – | rearing activity in Cylinder test (aphakia (ak/ak) mice): dramatically induced rearing activity
4 | – | – | – | COc1cc(NC(C)CCCN)c2ncccc2c1 (stereo not drawn) [primaquine] | – | – | – | – | – | transactivation of Nurr1 LBD / Nurr1 transcriptional function (Nurr1 LBD [2]; wide range of concentrations, FIG. 18): couldn't enhance the Nurr1 transcriptional function; Ki, competition with [3H]-CQ for binding to Nurr1-LBD (Nurr1 LBD [1]; 500 nM [3H]-CQ): unable to compete
5 | – | – | – | CCN(CC)CCCC(C)Nc1ccnc2cc(Cl)ccc12 (stereo not drawn) [CQ, chloroquine] | – | – | – | – | – | EC50 (Nurr1 LBD [2]; read-out: EC50 Nurr1 LBD-based reporter activity): ~60 µM and ~50 µM; transcriptional activity of other nuclear receptors [3]: unable to induce; Ki (Nurr1 LBD [1]; 500 nM [3H]-CQ): 0.088 µM; Nurr1 recruitment to NL1 and NL3 sites of the TH promoter [4]: recruited to both NL1 and NL3 sites; 6-OHDA-induced death in primary DA neurons [5]: significantly inhibit; neuroprotective effect in PC12 cells (PC12 cells): neuroprotective effect; MPTP-induced parkinsonian motor abnormalities (MPTP-treated monkeys): protected them from MPTP-induced parkinsonian motor abnormalities
6 | 0.066 | 0.128 | 97 to 99 | Cc1cc(NCCCCCCNc2ccnc3cc(Cl)ccc23)nc(N2CCCCC2)n1 [12d, N-(7-Chloro-quinolin-4-yl)-N′-(6-methyl-2-piperidin-1-yl-pyrimidin-4-yl)-hexane-1,6-diamine] | 142.4 | 73.4 | 9.4 | < 6.7 | < 6.7 | selectivity index of antimalarial activity [6]: considerably high; toxicity to cell lines (VERO cells): showed toxicity
7 | 0.007 | 0.016 | 152 to 154 | Cc1cc(NCCCCCCNc2ccnc3cc(Cl)ccc23)nc(N2CCN(C)CC2)n1 [12l, N-(7-Chloro-quinolin-4-yl)-N′-[6-methyl-2-(4-methyl-piperazin-1-yl)-pyrimidin-4-yl]-hexane-1,6-diamine] | (>1457) | (>637) | 10.2 | 7.4 | < 6.7 | activity fold higher than artemisinin [6]: 2 fold; selectivity index of antimalarial activity [6]: considerably high; toxicity to cell lines (VERO cells): showed toxicity
8 | 0.007 | 0.063 | 176 to 178 | Cc1cc(NCCCNc2ccnc3cc(Cl)ccc23)nc(N2CCN(C)CC2)n1 [12j, N-(7-Chloro-quinolin-4-yl)-N′-[6-methyl-2-(4-methyl-piperazin-1-yl)-pyrimidin-4-yl]-propane-1,3-diamine] | (>8571) | (>952) | > 60 | 35.2 | 25.8 | activity fold higher than artemisinin [6]: 2 fold
9 | 0.019 | 0.018 | 101 to 103 | CCN1CCN(c2nc(C)cc(NCCCCNc3ccnc4cc(Cl)ccc34)n2)CC1 [12n, N-(7-Chloro-quinolin-4-yl)-N′-[2-(4-ethyl-piperazin-1-yl)-6-methyl-pyrimidin-4-yl]-butane-1,4-diamine] | 1678.9 | 1772.2 | 31.9 | 10.5 | 14.9 | –
